The results in this text go back to patent US20090035364A1, “PARA-SUBSTITUTED 2-ALKOXYPHENOL COMPOUNDS” (priority 2006, published 2009).

A short description of series [1]: Cooling intensity: panelists taste aqueous solutions, compared with menthol at 2 ppm. The format is in vivo, human. To be noted: tasted by a small group of panelists.
The nature of series [2]: Application in toothpaste: panelist's teeth brushed with toothgel containing the compound. Type of series: in vivo, human. The following applies: 0.10 g of 10% solution in ethanol in opaque toothgel with peppermint oil and saccharin; after brushing and rinsing. The method, then:
The chemicals are mixed in the toothgel, a piece of toothgel is put on a toothbrush and a panelist's teeth are brushed. The mouth is rinsed with water and the water is spat out. […] The cooling perception lasts for 45 minutes.

For `COc1cc(CNC(c2ccccc2)c2ccccc2)ccc1O` [Example 1, 4-((benzhydrylamino)methyl)-2-methoxyphenol], the “Concentration having a cooling intensity similar to or slightly higher than that of a solution of menthol at 2 ppm” value in series [1] was determined as 0.5 ppm.

For the compound `COc1cc(COC(c2ccccc2)c2ccccc2)ccc1O` [Example 4, 4-((benzhydryloxy)methyl)-2-methoxyphenol], in series [2], the “Cooling sensation felt by the panelist” value is recorded as “intense cooling sensation” and the “Duration of cooling perception” value is 45 min. Besides, the “Concentration having a cooling intensity similar to or slightly higher than that of a solution of menthol at 2 ppm” value in series [1] turned out to be 1.0 ppm.

Usually melting point stands for the temperature of the solid-liquid transition. On to `COc1cc(CNC2c3ccccc3-c3ccccc32)ccc1O` [Example 5, 4-((9H-fluoren-9-ylamino)methyl)-2-methoxyphenol], for which the melting point fell in the range of 148 to 150 °C.

Consider `CCOc1cc(CNC(c2ccccc2)c2ccccc2)ccc1O` [Example 6, 4-((benzhydrylamino)methyl)-2-ethoxyphenol], for which the melting point was in the range of 89 to 91 °C.

Turning to `CC1CCC(C(C)C)C(O)C1` (centres unmarked) [I-Menthol, reference compound], the “Concentration having a cooling intensity similar to or slightly higher than that of a solution of menthol at 2 ppm” value in series [1] is given as 2.0 ppm.

With `CCNC(=O)C1CC(C)CCC1C(C)C` (centres unmarked) [N-ethyl p-menthanecarboxamide (WS-3), N-ethyl p-menthanecarboxamide, reference compound], the “Concentration having a cooling intensity similar to or slightly higher than that of a solution of menthol at 2 ppm” value in series [1] is 1.5 ppm.
